Tested on: human embryonic stem cells
Assay: Metabolite profiling (LC/ESI-TOF mass spectrometry) of extracellular media of hESCs treated with alcohol
Type: cell-based
Details: ETOH 0.3
From the text: Binned masses were annotated in silico by querying the neutral masses in several different databases. These databases included Metlin, Biological Magnetic Resonance Data Bank (BMRB), NIST Chemistry WebBook, and the Human Metabolome Database. A mass was considered identified when its neutral mass was within 10 ppm of a known compound annotated in one of the databases listed above.

## CCO [ETOH]
4 D
  Fold: Unknown, mass 268.2487, RT 42.3656: −1.517 fold
  Fold: Unknown, mass 284.9798, RT 5.69776: −1.2223 fold
  Fold: Unknown, mass 286.1519, RT 14.88092: −1.862 fold
  Fold: Unknown, mass 293.1952, RT 66.86661: −2.154 fold
  Fold: Unknown, mass 293.9773, RT 4.014175: −2.267 fold
  Fold: Unknown, mass 294.1535, RT 20.67831: −1.422 fold
  Fold: Unknown, mass 295.1521, RT 8.967061: 1.467 fold
  Fold: Unknown, mass 301.1345, RT 7.719471: 2.678 fold
  Fold: Unknown, mass 315.6732, RT 26.51229: −2.865 fold
  Fold: Unknown, mass 322.1166, RT 23.90107: −2.4215 fold
  Fold: Unknown, mass 332.1367, RT 20.72194: −2.077 fold
  Fold: Unknown, mass 340.9252, RT 5.033976: 2.625 fold
  Fold: Unknown, mass 353.2765, RT 3.85935: 4.904 fold
  Fold: Unknown, mass 365.1606, RT 20.16372: −1.925 fold
  Fold: Unknown, mass 375.1886, RT 26.07722: −4.751 fold
  Fold: Unknown, mass 375.1898, RT 11.47109: 2.132 fold
  Fold: Unknown, mass 383.1721, RT 15.20829: 3.377 fold
  Fold: Unknown, mass 387.0812, RT 19.97914: −1.699 fold
  Fold: Unknown, mass 388.2349, RT 46.346: −1.532 fold
  Fold: Unknown, mass 393.1886, RT 19.69092: −2.059 fold
  Fold: Unknown, mass 396.1687, RT 6.259963: 2.422 fold
  Fold: Unknown, mass 403.1984, RT 17.27421: −2.303 fold
  Fold: Unknown, mass 417.2338, RT 33.09057: −1.78 fold
  Fold: Unknown, mass 417.2386, RT 21.14975: −1.573 fold
  Fold: Unknown, mass 420.0513, RT 13.35295: −1.902 fold
  Fold: Unknown, mass 421.2201, RT 27.46219: −2.273 fold
  Fold: Unknown, mass 429.2533, RT 18.03482: −2.201 fold
  Fold: Unknown, mass 443.2339, RT 30.87201: 2.171 fold
  Fold: Unknown, mass 443.3216, RT 67.0705: 1.688 fold
4 D, retention time 3.646902
  Fold, Unknown metabolite, Mass 994.0917: 1.605
4 D, retention time 3.680188
  Fold, Unknown metabolite, Mass 980.075: 1.481
4 D, retention time 3.705141
  Fold, Unknown metabolite, Mass 1008.072: 1.416
4 D, retention time 4.613879
  Fold, Unknown metabolite, Mass 820.8181: −1.571
4 D, retention time 4.936704
  Fold, Unknown metabolite, Mass 611.8727: 2.01
4 D, retention time 5.177162
  Fold, Unknown metabolite, Mass 1038.786: 1.588
4 D, retention time 5.399211
  Fold, Unknown metabolite, Mass 921.0025: 1.945
4 D, retention time 5.742094
  Fold, Unknown metabolite, Mass 555.8505: −1.3396
4 D, retention time 5.8905
  Fold, Unknown metabolite, Mass 1040.323: −1.479
4 D, retention time 5.891069
  Fold, Unknown metabolite, Mass 509.6704: 1.468
4 D, retention time 5.903169
  Fold, metabolite Ethanesulfonic acid, Mass 579.2519: −2.112
4 D, retention time 5.903429
  Fold, Unknown metabolite, Mass 646.7084: 2.946
4 D, retention time 5.918027
  Fold, Unknown metabolite, Mass 732.007: 1.761
4 D, retention time 8.787827
  Fold, Unknown metabolite, Mass 658.2544: −3.21
4 D, retention time 13.78553
  Fold, Unknown metabolite, Mass 502.2258: 1.866
4 D, retention time 14.9927
  Fold, Unknown metabolite, Mass 566.2265: 1.624
4 D, retention time 15.78741
  Fold, Unknown metabolite, Mass 555.2406: 2.471
4 D, retention time 16.90923
  Fold, Unknown metabolite, Mass 577.2825: −8.917
4 D, retention time 18.36887
  Fold, Unknown metabolite, Mass 505.2616: 2.009
4 D, retention time 21.72729
  Fold, Unknown metabolite, Mass 489.2127: 2.372
4 D, retention time 22.95657
  Fold, Unknown metabolite, Mass 462.2217: 1.936
4 D, retention time 23.87065
  Fold, metabolite L-Oleandrosyl-oleandolide, Mass 530.314: 2.212
4 D, retention time 24.7039
  Fold, Unknown metabolite, Mass 574.3397: 1.524
4 D, retention time 25.14927
  Fold, metabolite L-Urobilinogen, Mass 596.3543: 1.545
4 D, retention time 26.7452
  Fold, Unknown metabolite, Mass 661.3846: 1.547
4 D, retention time 29.86415
  Fold, Unknown metabolite, Mass 447.2509: −1.858
4 D, retention time 30.28867
  Fold, Unknown metabolite, Mass 478.2761: 1.51
4 D, retention time 30.37291
  Fold, metabolite glucuronide, Mass 471.1928: 2.726
4 D, retention time 30.45343
  Fold, Unknown metabolite, Mass 449.2653: −2.414
4 D, retention time 30.72707
  Fold, Unknown metabolite, Mass 471.7804: −3.441
4 D, retention time 31.22083
  Fold, Unknown metabolite, Mass 510.8202: 2.502
4 D, retention time 31.97996
  Fold, Unknown metabolite, Mass 559.8329: −2.566
4 D, retention time 32.08734
  Fold, Unknown metabolite, Mass 635.4065: 1.395
4 D, retention time 32.50661
  Fold, Unknown metabolite, Mass 531.2876: 2.361
4 D, retention time 32.67372
  Fold, Unknown metabolite, Mass 603.3535: −2.94
4 D, retention time 33.51823
  Fold, Unknown metabolite, Mass 460.9391: −3.602
4 D, retention time 33.68866
  Fold, Unknown metabolite, Mass 619.3409: 2.126
4 D, retention time 34.60124
  Fold, Unknown metabolite, Mass 796.9917: 1.689
4 D, retention time 35.028
  Fold, Unknown metabolite, Mass 751.4193: 1.845
4 D, retention time 35.58454
  Fold, Unknown metabolite, Mass 531.3191: −3.0409
4 D, retention time 40.84822
  Fold, metabolite Neu5Acalpha2-3Galbeta1-4Glcbeta-Sp, Mass 702.2497: −2.216
4 D, retention time 46.57666
  Fold, Unknown metabolite, Mass 518.3914: 2.289
4 D, retention time 47.76987
  Fold, Unknown metabolite, Mass 731.0954: −3.25
4 D, retention time 47.90467
  Fold, Unknown metabolite, Mass 576.096: 1.558
4 D, retention time 51.58546
  Fold, Unknown metabolite, Mass 444.2237: 2.03
4 D, retention time 51.6158
  Fold, Unknown metabolite, Mass 468.2002: 1.92
4 D, retention time 51.73057
  Fold, Unknown metabolite, Mass 526.2773: 2.715
4 D, retention time 54.8719
  Fold, Unknown metabolite, Mass 446.0431: 1.934
4 D, retention time 66.31491
  Fold, Unknown metabolite, Mass 531.3736: 2.874
4 D, retention time 66.73744
  Fold, Unknown metabolite, Mass 487.3472: 2.878
4 D, retention time 71.36012
  Fold, Unknown metabolite, Mass 528.3631: 2.361
4 D, retention time 88.02533
  Fold, Unknown metabolite, Mass 556.3971: −2.384
24 H
  Fold: 1,3-Dimethyl-8-isoquinolinol, mass 173.084, RT 20.23014: −1.44 fold
  Fold: 3,4-Dihydroxybutyric acid, mass 129.0452, RT 16.73904: 1.796 fold
  Fold: 3-Methoxytyramine / Phenylephrine, mass 167.0941, RT 23.6763: −2.83 fold
